One data set concerns the target scNS4A-NS3 (Hepatitis C virus genotype 1b, UniProt Q9WMX2). The data set can be described thus: NS3 protease assay (ENZOLYTE 520), full-length. Type of data set: biochemical, hepatitis C virus genotype 1b(con1). Details: other: average of two sets; There is also a His tag. The procedure:
(§1) All oligonucleotides were purchased from Integrated DNA Technologies (IDT, Coralville, Iowa). Primuline derivatives were synthesized and purified as described herein. Three different NS3 proteins were used in this study. Two were truncated C-terminally His-tagged NS3 proteins lacking the N-terminal protease, called NS3h, the third was a full-length NS3 with the portion of NS4A needed for protease activation fused to its N-terminus, called scNS4A-NS3 (Howe, et al. (1999) Protein Sci. 8:1332-41), and the fourth was a 23 kDa scNS4A-NS3 protease fragment lacking the helicase domains, called scNS4A-NS3p (Protein One, Rockville, Md.). NS3h was expressed from two different HCV strains. NS3h_1b(con1) was from the con1 strain of genotype 1b (GENBANK accession AB114136), and NS3h_2a(JFH1) was from the JFH1 strain of HCV genotype 2a (GENBANK accession AJ238799). […] His-tagged recombinant NS3h_1b(con1), NS3h_2a(JFH1), and scNS4A-NS3 (also from genotype 1b(con1)) were expressed, and purified as previously described (Frick, et al. (2010) supra; Lam, et al. (2003) J. Virol. 77:3950-3961). The scNS4A-NS3p (genotype 1b) was from Protein One. A plasmid expressing NS3h from dengue virus strain 2 (NS3h_DV2)(GENBANK accession 2BMF) is known in the art (Xu, et al. (2005) J. Virol. 79:10278-10288), and used to express and purify NS3h_DV2 (Belon, et al. (2010) supra)
(§2) All NS3 protease assays were carried out using the 5-Carboxyfluorescein-labeled substrate from the AnaSpec. ENZOLYTE 520 Protease Assay Kit (AnaSpec, San Jose, Calif.). Each assay contained 5 nM scNS4A-NS3 or 50 nM scNS4A-NS3p, […], 5% DMSO and 1× Anaspec HCV protease assay buffer. Assays were carried out in a total volume of 20 μl in black 384-well plates with fluorescence at 520 nm measured using a BMG FLUOstar Omega fluorescence spectrophotometer. Reactions were performed with eight concentrations of a two-fold dilution series of each compound (in duplicate) starting at 100 μM.

The target of another data set is T1, NS3h_1b (Hepatitis C virus genotype 1b, UniProt Q9WMX2).
T1 construct: truncated C-terminally His-tagged NS3 proteins lacking the N-terminal protease, called NS3h; His-tag (C); made in house
T1 sequence (Q9WMX2 1192-1657): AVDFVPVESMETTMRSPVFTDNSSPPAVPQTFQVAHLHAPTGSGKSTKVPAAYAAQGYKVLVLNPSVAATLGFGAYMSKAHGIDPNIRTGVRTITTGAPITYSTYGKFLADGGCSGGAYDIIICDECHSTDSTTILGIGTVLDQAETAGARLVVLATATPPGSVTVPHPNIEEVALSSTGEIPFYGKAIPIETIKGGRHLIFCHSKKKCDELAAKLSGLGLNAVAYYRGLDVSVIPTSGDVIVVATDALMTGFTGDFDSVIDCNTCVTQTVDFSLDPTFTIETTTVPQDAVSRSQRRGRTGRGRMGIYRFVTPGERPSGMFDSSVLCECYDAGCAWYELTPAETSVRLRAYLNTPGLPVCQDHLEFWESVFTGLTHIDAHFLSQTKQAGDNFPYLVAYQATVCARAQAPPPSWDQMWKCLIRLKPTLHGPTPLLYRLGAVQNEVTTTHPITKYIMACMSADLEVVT
Nature of the data set: ATPase assay without RNA. Type of data set: biochemical, hepatitis C virus genotype 1b(con1). The protocol:
A modified “malachite green” assay (Lanzetta, et al. (1979) Anal. Biochem. 100:95-97) was used to measure ATP hydrolysis. Fifty μL reactions contained 25 mM MOPS pH 6.5, 5 mM MgCl2, 2 mM ATP, 5 μg/mL BSA, 0.01% (v/v) TWEEN 20, 0.05 mM DTT, and poly(U) RNA (Saint Louis, Mo.) as indicated. Reactions were initiated by adding NS3h_1b(con1). Reactions were incubated for 15 minutes at 37° C. then stopped by mixing 40 μL of the reaction into 200 μL of the malachite green reagent (3 volumes 0.045% (w/v) malachite green, 1 volume 4.2% ammonium molybdate in 4N HCl, 0.05 volume of 20% TWEEN 20). […] Absorbance at 630 nm was proportional to the concentration of phosphate produced; free phosphate produced was measured against a standard curve.
A simple explanation for the ability of some of the primuline derivatives to inhibit helicase and protease with similar potency would be that the compounds acted by simply aggregating or denaturing the enzyme. To test for irreversible inhibition, NS3h was incubated with 100 μM of each compound, diluted and then assayed for its ability to unwind DNA under standard conditions. […] In a second test for a simple aggregation mechanism, each compound was tested for its ability to inhibit NS3-catalyzed ATP hydrolysis. ATP hydrolysis fuels the unwinding reaction and NS3 hydrolyzes ATP both in the presence and absence of DNA or RNA; nucleic acid stimulates NS3 catalyzed ATP hydrolysis about 50-fold. […] To test this hypothesis, ATPase assays were performed in the presence of various concentrations of each primuline derivative, under conditions similar to those used to monitor effects on DNA and RNA unwinding. Far more of each compound was needed to inhibit NS3-catalyzed ATP hydrolysis than was needed to inhibit the helicase activity, or, in some cases, NS3 protease activity (Table 11).

The next data set has as its target T2, NS3h_1b(con1) (Hepatitis C virus genotype 1b, UniProt Q9WMX2).
T2 construct: truncated C-terminally His-tagged NS3 proteins lacking the N-terminal protease, called NS3h; His-tag (C); made in house
The data set can be described thus: RNA-stimulated ATP hydrolysis, pH 7.5, HCV. Type of data set: biochemical, hepatitis C virus genotype 1b(con1). The protocol:
To compare the effect of compounds on HCV NS3h_1b (con1) to NS3h_DV2, reactions were performed with 2 nM of either enzyme in 25 mM Tris pH 7.5, 1.25 mM MgCl2, 1.0 mM ATP, 10% DMSO, 5 μg/ml BSA, 0.01% (v/v) TWEEN 20, 0.05 mM DTT, and 10 μM poly(U) RNA at 37° C.
To further profile compound specificity, it was determined whether the compounds would inhibit homologous NS3h expressed by the Dengue virus (NS3h_DV2). […] The same assays were also repeated with HCV NS3h_1b(con1) for comparison. […] However, most of the primuline derivatives were relatively potent inhibitors of RNA-stimulated ATP hydrolysis catalyzed by the Dengue enzyme under the same conditions.

Data set [1] in a line: Absorbance and fluorescence properties. Type of data set: physicochemical. The settings on record: for Absorbance ∈: extinction coefficient. The source says:
Most of the compounds isolated from the two yellow dyes were fluorescent, absorbing light around 340 nm, and emitting near 420 nm. Their extinction coefficient and peak absorption wavelengths increased as the length of the benzothiazole oligomer increased. Their relative fluorescence decreased with the length of the benzothiazole chain. None of the compounds absorbed light near either the absorption or emission wavelengths of the Cy5-labeled MBHA substrate, or the wavelengths where the fluorescence of ethidium bromide stained DNA, SYBER green I-stained DNA, NS3-catalyzed peptide cleavage, or ATP hydrolysis were measured.
When directly compared with P4, the semi-synthetic primuline derivatives have a sharper absorbance peak centered near 360 nm, and they emit 3-15 times more light when excited at their absorbance maximum. […] Some compounds, like 12, stained both the cytoplasm and nucleus, but they also stained glass coverslips.

In a further data set the target is T3, scNS4A-NS3p (UniProt P26663).
T3 construct: fused on or other part: NS4A cofactor peptide, from the same polyprotein, fused to the NS3 protease fragment
T3 sequence (P26663 1027-1657): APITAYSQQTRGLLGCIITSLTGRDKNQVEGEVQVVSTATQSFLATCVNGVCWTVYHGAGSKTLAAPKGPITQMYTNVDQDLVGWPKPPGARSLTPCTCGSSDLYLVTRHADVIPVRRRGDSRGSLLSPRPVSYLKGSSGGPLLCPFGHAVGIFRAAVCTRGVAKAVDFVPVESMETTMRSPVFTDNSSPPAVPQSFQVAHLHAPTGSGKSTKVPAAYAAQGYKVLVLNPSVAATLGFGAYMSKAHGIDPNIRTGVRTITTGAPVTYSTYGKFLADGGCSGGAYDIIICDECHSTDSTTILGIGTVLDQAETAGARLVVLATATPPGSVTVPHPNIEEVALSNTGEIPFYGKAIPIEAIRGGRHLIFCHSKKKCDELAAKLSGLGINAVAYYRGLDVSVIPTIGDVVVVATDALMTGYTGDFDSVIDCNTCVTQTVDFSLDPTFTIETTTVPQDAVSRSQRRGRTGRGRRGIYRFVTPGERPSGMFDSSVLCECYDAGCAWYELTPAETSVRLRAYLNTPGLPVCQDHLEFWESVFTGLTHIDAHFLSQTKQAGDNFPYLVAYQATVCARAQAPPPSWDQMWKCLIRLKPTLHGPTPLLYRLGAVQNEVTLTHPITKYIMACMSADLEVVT
Nature of the data set: NS3 protease assay (ENZOLYTE 520), protease fragment. Type of data set: biochemical, hepatitis C virus genotype 1b. The settings on record: read-out: Protease ScNS4a-NS3p IC50 (μM) ± SD; one set of assays. The protocol: as §1, §2

Sequence of scNS4A-NS3 (Q9WMX2 1027-1657): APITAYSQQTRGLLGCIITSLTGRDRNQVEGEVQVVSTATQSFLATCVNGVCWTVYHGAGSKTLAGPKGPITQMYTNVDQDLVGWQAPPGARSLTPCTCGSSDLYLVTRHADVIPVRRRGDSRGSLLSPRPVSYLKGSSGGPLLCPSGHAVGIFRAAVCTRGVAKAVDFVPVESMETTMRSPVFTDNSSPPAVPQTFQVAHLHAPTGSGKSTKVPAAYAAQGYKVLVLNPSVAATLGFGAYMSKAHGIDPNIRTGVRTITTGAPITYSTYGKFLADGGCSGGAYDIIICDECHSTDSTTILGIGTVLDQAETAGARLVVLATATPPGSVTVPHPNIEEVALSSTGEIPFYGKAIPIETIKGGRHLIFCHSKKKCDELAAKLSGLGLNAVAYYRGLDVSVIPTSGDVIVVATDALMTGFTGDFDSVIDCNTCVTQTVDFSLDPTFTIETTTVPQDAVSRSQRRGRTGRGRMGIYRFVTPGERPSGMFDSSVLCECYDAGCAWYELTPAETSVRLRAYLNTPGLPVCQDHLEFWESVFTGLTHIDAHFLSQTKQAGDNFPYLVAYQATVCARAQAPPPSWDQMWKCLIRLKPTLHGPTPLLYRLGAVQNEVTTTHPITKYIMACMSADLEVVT
T2 sequence (Q9WMX2 1192-1657): as the sequence (Q9WMX2 1192-1657) above

`Cc1ccc2nc(-c3ccc4nc(-c5ccc(NC(=O)c6cc(C(F)(F)F)ccc6F)cc5)sc4c3)sc2c1S(=O)(=O)O` [Compound 25, 2′-(4-(2-fluoro-5-(trifluoromethyl)benzamido)phenyl)-6-methyl-[2,6′-bibenzo[d]thiazole]-7-sulfonic acid] registered an IC50 against scNS4A-NS3 of 51 ± 25 µM. At NS3h_1b, this compound yielded an IC50 of 61 ± 13 µM. The compound further registered an IC50 on NS3h_1b(con1) of 19 ± 2 µM. Besides, in data set [1], the “Absorbance λmax” value was found to be 355 nm, the “Fluorescence Emmax” value turned out to be 497 nm, the “Fluorescence RFU@ 10 μM” value amounted to 159 RFU and the “Absorbance ∈” value is given as 41,750 M^−1cm^−1. At scNS4A-NS3p, the IC50 is greater than 100 µM.

In the case of `Cc1ccc2nc(-c3ccc4nc(-c5ccc(NC(=O)c6ccc7ccccc7c6)cc5)sc4c3)sc2c1S(=O)(=O)O` [Compound 33, 2′-(4-(2-naphthamido)phenyl)-6-methyl-[2,6′-bibenzo[d]thiazole]-7-sulfonic acid], the IC50 at scNS4A-NS3 was greater than 100 µM; against NS3h_1b it was 30 ± 6 µM; on NS3h_1b(con1) it was 52 ± 6 µM; on scNS4A-NS3p, greater than 100 µM. In addition, in data set [1], the “Absorbance λmax” value was found to be 359 nm. For the same compound, the “Fluorescence Emmax” value in data set [1] was 496 nm. In addition, the “Fluorescence RFU@ 10 μM” value in data set [1] is given as 236 RFU. The “Absorbance ∈” value in data set [1] is listed as 63,450 M^−1cm^−1.

`Cc1ccc2nc(-c3ccc4nc(-c5ccc(NC(=O)c6ccc7nc(-c8ccc(N)cc8)sc7c6)cc5)sc4c3)sc2c1S(=O)(=O)O` [Compound 35, 2′-(4-(2-(4-aminophenyl)benzo[d]thiazole-6-carboxamido)phenyl)-6-methyl-[2,6′-bibenzo[d]thiazole]-7-sulfonic acid] came in with an IC50 against scNS4A-NS3 of 7 ± 1 µM. Moreover, the IC50 against NS3h_1b was greater than 200 µM. Also, on NS3h_1b(con1), half-maximal inhibition (IC50) required 150 ± 2 µM. Also, in data set [1], the “Absorbance λmax” value worked out at 361 nm, the “Fluorescence Emmax” value is on record as 532 nm, the “Fluorescence RFU@ 10 μM” value is 2 RFU and the “Absorbance ∈” value is 42,000 M^−1cm^−1. Besides, the IC50 at scNS4A-NS3p was 20 µM.

As for `Cc1ccc2nc(-c3ccc4nc(-c5ccc(N)cc5)sc4c3)sc2c1S(=O)(=O)O` [Compound P2a, 2′-(4-aminophenyl)-6-methyl-[2,6′-bibenzo[d]thiazole]-7-sulfonic acid], the IC50 against scNS4A-NS3 is greater than 100 µM. At NS3h_1b, this compound registered an IC50 greater than 200 µM. The compound further yielded an IC50 against NS3h_1b(con1) greater than 200 µM. Further, in data set [1], the “Absorbance λmax” value amounted to 366 nm, the “Fluorescence Emmax” value is 553 nm, the “Fluorescence RFU@ 10 μM” value was determined as 15 RFU and the “Absorbance ∈” value is 38,550 M^−1cm^−1. Besides, the IC50 on scNS4A-NS3p was greater than 100 µM.

For the origin of these results see patent US9464064B2, “HCV helicase inhibitors and methods of use thereof” (University of Kansas, priority 2011, dated 2016).
